Consider nine compounds from PubChem BioAssay (NCI).

Test systems include M14 melanoma; COLO 205 colon; BT-549 breast; ACHN renal; DU-145 prostate; SK-OV-3 ovarian; MDA-MB-231 breast; OVCAR-8 ovarian; UACC-257 melanoma; A549 NSCLC.
Holding throughout (assay): growth of human tumour cells (NCI), 48 h

Each structure is given as a SMILES string.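 Where inhibition never reached the appropriate level, the endpoint shown equals the highest concentration tested. Otherwise, values were interpolated linearly from a five-concentration, 48-hour dose response in 96-well plates. The concentration for 50% growth inhibition is given as GI50. TGI denotes the concentration required for complete inhibition of growth.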 Where only a bound is given, the exact number is not on record here.

Turning to `O=C(Nc1n[nH]c2nc(-c3ccco3)c(Br)cc12)C1CC1`, the GI50 is over 25 µM with M14 melanoma; over 25 µM with COLO 205 colon; over 25 µM in the test on BT-549 breast; over 25 µM in the test on ACHN renal; over 25 µM with DU-145 prostate; 15.9 µM with SK-OV-3 ovarian. The GI50 with MDA-MB-231 breast, in the test with OVCAR-8 ovarian, with UACC-257 melanoma and in the test with A549 NSCLC was over 25 µM each time. The TGI with M14 melanoma, in the test with COLO 205 colon, with BT-549 breast, in the test on ACHN renal, with DU-145 prostate and in the test on SK-OV-3 ovarian was over 25 µM throughout. The TGI in the test with MDA-MB-231 breast, in the test with OVCAR-8 ovarian, in the test with UACC-257 melanoma and in the test with A549 NSCLC was over 25 µM each time.
For the compound `COc1cc2c(cc1OC)C(=O)C(Br)CC2` (stereo not given), the GI50 in the test with M14 melanoma is 2.72 µM; in the test on COLO 205 colon it was 2.03 µM; in the test with BT-549 breast, 2.15 µM; in the test on ACHN renal, 1.86 µM; in the test on DU-145 prostate it was 4.61 µM; with SK-OV-3 ovarian, 4.55 µM. The GI50 is 3.56 µM in the test with MDA-MB-231 breast, 3.28 µM in the test on OVCAR-8 ovarian, 3.02 µM in the test on UACC-257 melanoma and 11.4 µM in the test with A549 NSCLC. Further, the TGI with M14 melanoma is 7.1 µM; in the test with COLO 205 colon, 3.72 µM; in the test with BT-549 breast it was 5.85 µM; with ACHN renal, 3.7 µM; with DU-145 prostate it was 16.2 µM; in the test on SK-OV-3 ovarian, 13.7 µM. The TGI in the test on MDA-MB-231 breast turned out to be 13.4 µM; in the test on OVCAR-8 ovarian, 11.7 µM; with UACC-257 melanoma, 11.3 µM; in the test with A549 NSCLC, 27.7 µM.
On to `COc1ccc(/C(=C/c2cc(OC)c(OC)c(OC)c2)[N+](=O)[O-])cc1`, for which the GI50 is 1.79 µM in the test with M14 melanoma; 1.79 µM with COLO 205 colon; 1.7 µM in the test on BT-549 breast; 1.54 µM in the test on ACHN renal; 1.75 µM with DU-145 prostate; 4.96 µM in the test with SK-OV-3 ovarian. In addition, the GI50 with MDA-MB-231 breast was 1.47 µM; in the test on OVCAR-8 ovarian it was 2.67 µM; with UACC-257 melanoma, 1.67 µM; with A549 NSCLC, 3 µM. Moreover, the TGI in the test on M14 melanoma is 3.72 µM; in the test with COLO 205 colon, 3.74 µM; in the test on BT-549 breast, 3.2 µM; with ACHN renal, 2.88 µM; in the test with DU-145 prostate, 3.14 µM; in the test with SK-OV-3 ovarian, 17 µM. The TGI turned out to be 3.28 µM in the test on MDA-MB-231 breast, 8.12 µM in the test with OVCAR-8 ovarian, 3.48 µM with UACC-257 melanoma and 10.3 µM in the test with A549 NSCLC.
As to `Cc1ccc(S(=O)(=O)N/N=C/C(Br)=C(/Br)C(=O)O)cc1`, the TGI in the test with M14 melanoma is 18.2 µM; in the test on COLO 205 colon it was 13.3 µM; in the test on BT-549 breast, 20.7 µM; with ACHN renal, 8.75 µM; in the test on DU-145 prostate, 26.9 µM; in the test with SK-OV-3 ovarian it was 34.8 µM. Also, the TGI turned out to be 36 µM with MDA-MB-231 breast, 9.93 µM in the test on OVCAR-8 ovarian, 26.8 µM in the test with UACC-257 melanoma and 50.2 µM in the test on A549 NSCLC.
With `OB([O][Hg][c]1ccccc1)[O][Hg][c]1ccccc1`, the GI50 with M14 melanoma was 0.283 µM; in the test with COLO 205 colon, 0.502 µM; in the test on BT-549 breast, 0.226 µM; in the test with ACHN renal, 0.493 µM; in the test with DU-145 prostate, 0.873 µM; in the test on SK-OV-3 ovarian, 1.6 µM. The GI50 in the test with MDA-MB-231 breast is 0.628 µM; in the test on OVCAR-8 ovarian it was 0.522 µM; in the test on UACC-257 melanoma, 0.317 µM; in the test with A549 NSCLC, 1.83 µM. Also, the TGI in the test with M14 melanoma stood at 0.977 µM; in the test with COLO 205 colon, 1.46 µM; with BT-549 breast it was 0.779 µM; in the test on ACHN renal it was 1.39 µM; in the test with DU-145 prostate it was 2.29 µM; with SK-OV-3 ovarian, 2.97 µM. The TGI in the test with MDA-MB-231 breast is 1.89 µM; in the test with OVCAR-8 ovarian, 3.53 µM; in the test with UACC-257 melanoma it was 1.14 µM; with A549 NSCLC it was 4.64 µM.
Regarding `C1=CN2C[n+]3cccc(OCc4ccccc4)c3N=C2C(OCc2ccccc2)=C1`, the TGI is 56.4 µM in the test with M14 melanoma; 18 µM with COLO 205 colon; 3.25 µM in the test on BT-549 breast; over 100 µM with ACHN renal; over 100 µM in the test on DU-145 prostate; over 100 µM in the test with SK-OV-3 ovarian. Besides, the TGI in the test on MDA-MB-231 breast is 56.1 µM; with OVCAR-8 ovarian it was over 100 µM; with UACC-257 melanoma, 27.5 µM; in the test with A549 NSCLC, over 100 µM.
Take `COC(=O)[C@]12CC[C@@H](C)[C@H](C)[C@@H]1C1=CC[C@@H]3[C@@]4(C)CC(=O)[C@H](O)[C@@]5(C)COC(=C45)C[C@@]3(C)[C@]1(C)CC2`: the GI50 was 18.5 µM with M14 melanoma; 17.9 µM in the test with COLO 205 colon; 17.3 µM in the test with BT-549 breast; 18.3 µM with ACHN renal; 18.7 µM in the test on DU-145 prostate; 18.2 µM in the test on SK-OV-3 ovarian. Besides, the GI50 with MDA-MB-231 breast was 20.1 µM; in the test with OVCAR-8 ovarian it was 19.6 µM; in the test on UACC-257 melanoma, 19.2 µM; with A549 NSCLC it was 23.9 µM. In addition, the TGI in the test with M14 melanoma was determined as 36.9 µM; with COLO 205 colon, 33.5 µM; in the test with BT-549 breast, 33.5 µM; with ACHN renal, 33.9 µM; in the test with DU-145 prostate, 35.1 µM; with SK-OV-3 ovarian, 32.8 µM. Besides, the TGI with MDA-MB-231 breast was 42.4 µM; with OVCAR-8 ovarian, 39.2 µM; in the test with UACC-257 melanoma it was 33.4 µM; with A549 NSCLC, 41.5 µM.
For the compound `NC(N)=NC(CC(=O)O)c1ccccc1` (stereo not given), the TGI in the test on M14 melanoma, in the test on COLO 205 colon, with BT-549 breast, in the test with ACHN renal, in the test on DU-145 prostate and in the test on SK-OV-3 ovarian was over 100 µM throughout. Further, the TGI in the test with MDA-MB-231 breast, with OVCAR-8 ovarian, in the test with UACC-257 melanoma and in the test on A549 NSCLC was over 100 µM in each case.
As to `N#C/C(=C\c1c(-c2ccccc2)[nH]c2ccccc12)C(=O)c1ccc(Cl)cc1`, the GI50 in the test with M14 melanoma is 0.725 µM; with COLO 205 colon it was 0.814 µM; in the test on BT-549 breast it was 5.83 µM; in the test on ACHN renal, 6.69 µM; with DU-145 prostate it was 3.54 µM; with SK-OV-3 ovarian it was 3.02 µM. In addition, the GI50 is 4.09 µM in the test with MDA-MB-231 breast, 6.16 µM with OVCAR-8 ovarian, 30.2 µM in the test with UACC-257 melanoma and 8.44 µM with A549 NSCLC. Also, the TGI in the test on M14 melanoma was over 100 µM; in the test with COLO 205 colon, 5.43 µM; in the test on BT-549 breast, 79.7 µM; in the test with ACHN renal, over 55 µM; in the test on DU-145 prostate, 16.7 µM; in the test with SK-OV-3 ovarian, 14.8 µM. Also, the TGI in the test with MDA-MB-231 breast is 47.8 µM; with OVCAR-8 ovarian it was over 47.9 µM; with UACC-257 melanoma it was over 87.3 µM; in the test on A549 NSCLC it was over 68.8 µM.
